Measurements taken from article PMC6591397, “Functional Roles of Metabolic Intermediates in Regulating the Human Mitochondrial NAD(P)^+-Dependent Malic Enzyme” (Scientific Reports, 2019).
Where two headings read alike, the source gives them in different places.

Key:
m-NAD(P)-ME [1] = target: T1, m-NAD(P)-ME (Homo sapiens, UniProt P23368); assay: Size distribution analysis by analytical ultracentrifugation: monomer-dimer-tetramer equilibrium with different ligands; type: binding; conditions: NAD+-bound enzyme vs apoenzyme
T1 construct: made in house; host or cells: E. coli BL21 (pRH281 vector, trp promoter)
Procedure: All sedimentation velocity data were globally fitted by a monomer-dimer-tetramer equilibrium model by the software program of SEDPHAT[34]. The parameters protein partial specific volume, solvent density and viscosity were calculated with the [sequence] software program[35].

m-NAD(P)-ME [2] = target: T1, m-NAD(P)-ME; assay: Quaternary structure analysis by native gel electrophoresis; type: binding; conditions: 8 μg enzyme; 0.4 or 2 mM NAD+, 0.5 or 2 mM ATP
Procedure: The native gel was running under 110 Voltage with a running buffer (25 mM Tris-HCl and 192 mM glycine, pH8.3) at 4 °C. After electrophoresis, protein was detected by staining with the Coomassie brilliant blue R-250.
Figure S1. Quaternary structure of m-NAD(P)-ME determined by the native gel electrophoresis. The dimer-tetramer distribution of m-NAD(P)-ME was presented on the 3-12% Bis-Tris Native PAGE (NativePAGE^TM Novex®, Life Technologies).

[3] = target: human m-NAD(P)-ME WT and the exosite mutants; assay: Size distribution analysis by analytical ultracentrifugation of WT and exosite mutants, protein only, with NAD+ or with ATP; type: binding; conditions: PBS
Procedure: Size distribution of the monomer-dimer-tetramer equilibrium of the enzyme was monitored using a Beckman Optima XL-A analytical ultracentrifuge instrument. A protein sample (380 µl) and reference buffer (400 µl) were loaded into a well-assembled cell with a double-sector centerpiece. Experiments were performed with an An-50Ti rotor at 42,000 rpm and 20 °C for 3 to 4 hours. The scans for sedimentation velocity data were monitored by the UV absorbance at 280 nm with a 480 s interval time and a 0.002 cm step size in continuous distribution mode. Using the SEDFIT 9.4c software[31]–[34], the size distribution of the enzyme was analyzed with a resolution corresponding to N = 200 to cover the range of sedimentation coefficient (S) values from approximately 0.1 to 20, a confidence level of p = 0.95, and a best-fit average anhydrous frictional ratio (f/f0). The dissociation constants of monomer-dimer-tetramer self-association model were globally analyzed by using the SEDPHAT software.
All sedimentation velocity data were globally fitted by a monomer-dimer-tetramer equilibrium model by the software program of SEDPHAT[34]. The parameters protein partial specific volume, solvent density and viscosity were calculated with the […] software program.
Figure 4 Continuous sedimentation coefficient distribution of human m-NAD(P)-ME WT and the exosite mutants. The enzyme concentrations were fixed at 1.6, 4.7, and 14.2 μM in PBS. […] (a) ME2_WT; (b) ME2_H154V; (c) ME2_K156A; (d) ME2_G192A; (e) ME2_R194N; (f) ME2_R197E; (g) ME2_R197D.
Figure 5 Continuous sedimentation coefficient distribution of human m-NAD(P)-ME WT and the exosite mutants. The enzyme concentrations were fixed at 1.6, 4.7, and 14.2 μM in PBS. […] (a) ME2_N482G; (b) ME2_N482A; (c) ME2_R542V; (d) ME2_Y552F; (e) ME2_R556Q; (f) ME2_R556V.

[4] = system: human m-NAD(P)-ME WT and exosite mutants; assay: Enzyme kinetic assay (NADH production, absorbance at 340 nm) of WT and exosite mutants; type: biochemical; conditions: for K0.5,malate / Km / kcat: pH 7.4
Procedure: The ME reaction was measured with the production rate of NADH or NADPH via the absorbance at 340 nm. The reaction mixture in a saturated condition included 1 mM NAD(P)^+, 40 mM malate, and 10 mM MgCl2 in 50 mM Tris-HCl (pH 7.4). To determine the Km and kcat values, the concentration of one substrate was varied around its Km values while the concentrations of the other components were fixed at saturated concentrations.
The cooperativity of malate was determined with the following equation: ν=Vmax×[Malate]^h/K0.5h+[Malate]^h where ν is the initial velocity, Vmax is the maximum rate of the reaction, K0.5 is the substrate concentration at half-maximal velocity, and h is the Hill coefficient, which represents the degree of cooperativity.

[5] = system: human non-small cell lung carcinoma H1299 cancer cells; parameters: method as in PMID 26008970; conditions: cited from earlier work
lung tumor = system: lung tumor; parameters: method as in PMID 24957098; conditions: in vivo; cited from earlier work
[6] = protein only, read-out: Kd,12 monomer-dimer dissociation constant
[7] = protein only, read-out: Kd,24 dimer-tetramer dissociation constant
[8] = read-out: Kd,12(ATP), with 0.5 mM ATP
[9] = read-out: Kd,24(ATP), with 0.5 mM ATP
[10] = with 0.4 mM NAD+, read-out: Kd,12(NAD)
[11] = with 0.4 mM NAD+, read-out: Kd,24(NAD)

T1 sequence (P23368 19-584): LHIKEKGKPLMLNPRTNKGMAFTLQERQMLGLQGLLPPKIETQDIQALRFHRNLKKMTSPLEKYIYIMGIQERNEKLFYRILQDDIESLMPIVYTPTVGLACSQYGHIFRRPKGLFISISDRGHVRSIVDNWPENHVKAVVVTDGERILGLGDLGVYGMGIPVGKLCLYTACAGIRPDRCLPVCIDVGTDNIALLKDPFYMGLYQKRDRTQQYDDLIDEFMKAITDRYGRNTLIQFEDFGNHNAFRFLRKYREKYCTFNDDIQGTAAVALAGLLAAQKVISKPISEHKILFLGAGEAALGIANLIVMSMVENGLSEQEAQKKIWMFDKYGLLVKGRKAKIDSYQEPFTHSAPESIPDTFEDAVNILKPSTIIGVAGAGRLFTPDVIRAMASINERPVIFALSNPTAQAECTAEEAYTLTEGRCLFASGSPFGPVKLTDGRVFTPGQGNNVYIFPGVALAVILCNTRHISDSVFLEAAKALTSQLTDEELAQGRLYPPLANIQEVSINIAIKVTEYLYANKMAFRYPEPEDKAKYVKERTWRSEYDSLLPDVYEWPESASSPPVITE

Compound | Kd [3, 6] [nM] | Kd [3, 7] [nM] | Kd [3, 8] [nM] | Kd [3, 9] [nM] | Kd [3, 10] [nM] | Kd [3, 11] [nM] | h (Hill coefficient, malate cooperativity) ([4]; (+) with 5 mM fumarate) | K0.5,malate ([4]; (+) with 5 mM fumarate) [mM] | Km ([4]; (+) with 5 mM fumarate) [µM] | kcat ([4]; (+) with 5 mM fumarate) [s⁻¹] | h (Hill coefficient, malate cooperativity) ([4]; (−) without fumarate) | K0.5,malate ([4]; (−) without fumarate) [mM] | Km ([4]; (−) without fumarate) [µM] | kcat ([4]; (−) without fumarate) [s⁻¹] | also measured
NC(=O)c1ccc[n+]([C@@H]2O[C@H](COP(=O)([O-])OP(=O)(O)OC[C@H]3O[C@@H](n4cnc5c(N)ncnc54)[C@H](O)[C@@H]3O)[C@@H](O)[C@H]2O)c1 [NAD, NAD^+] |  |  |  |  |  |  |  |  |  |  |  |  |  |  | Kd,24 lower than that of the apoenzyme (m-NAD(P)-ME [1]): 6 fold; dimer-tetramer distribution of the enzyme on native gel (m-NAD(P)-ME [2]): most tetrameric forms
R556V: exosite mutant of human m-NAD(P)-ME | 130 ± 1 | 2300 ± 20 | 2030 ± 60 | 180 ± 10 | 600 ± 10 | 4070 ± 80 | 1.24 ± 0.30 | 1.87 ± 0.26 | 360 ± 20 | 204.9 ± 9.5 | 2.35 ± 0.47 | 15.90 ± 1.51 | 1080 ± 60 | 195.2 ± 12.8 | 
G192A: exosite mutant of human m-NAD(P)-ME | 90 ± 2 | 300 ± 1 | 210 ± 10 | 400 ± 10 | 60 ± 2 | 180 ± 10 | 1.19 ± 0.10 | 2.65 ± 0.18 | 320 ± 30 | 230.0 ± 4.4 | 1.30 ± 0.19 | 11.18 ± 2.08 | 570 ± 70 | 210.6 ± 7.7 | 
R556Q: exosite mutant of human m-NAD(P)-ME | 10 ± 3 | 1750 ± 60 | 400 ± 10 | 180 ± 10 | 180 ± 10 | 910 ± 30 | 1.20 ± 0.07 | 4.75 ± 0.31 | 690 ± 60 | 251.8 ± 5.6 | 1.71 ± 0.27 | 19.01 ± 2.40 | 1160 ± 220 | 220.5 ± 16.2 | 
O=C(O)c1cc2ccccc2c(Cc2c(O)c(C(=O)O)cc3ccccc23)c1O [EA, Embonic acid] |  |  |  |  |  |  |  |  |  |  |  |  |  |  | effect on cell growth [5]: suppresses the cell growth; effect on cellular senescence [5]: induces the cellular senescence
R542V: exosite mutant of human m-NAD(P)-ME | 10 ± 1 | 440 ± 10 | 20 ± 1 | 9870 ± 380 | 1870 ± 80 | 210 ± 10 | 1.06 ± 0.11 | 5.89 ± 0.78 | 910 ± 180 | 239.3 ± 12.6 | 1.43 ± 0.09 | 27.00 ± 3.44 | 2180 ± 270 | 175.6 ± 14.0 | 
R197E: exosite mutant of human m-NAD(P)-ME | 30 ± 1 | 2330 ± 80 | 100 ± 3 | 590 ± 20 | 100 ± 3 | 1110 ± 40 | 1.24 ± 0.10 | 4.55 ± 0.37 | 1110 ± 90 | 187.6 ± 5.2 | 1.65 ± 0.30 | 23.37 ± 4.48 | 2370 ± 280 | 165.2 ± 20.4 | 
N482G: exosite mutant of human m-NAD(P)-ME | 50 ± 10 | 180 ± 2 | 100 ± 3 | 60 ± 2 | 380 ± 2 | 40 ± 10 | 1.00 ± 0.09 | 4.23 ± 0.47 | 610 ± 40 | 309.7 ± 11.5 | 1.59 ± 0.14 | 23.81 ± 2.70 | 1500 ± 140 | 263.2 ± 19.7 | 
R197D: exosite mutant of human m-NAD(P)-ME | 800 ± 20 | 260 ± 10 | 690 ± 20 | 110 ± 3 | 60 ± 3 | 810 ± 40 | 1.06 ± 0.05 | 4.98 ± 0.28 | 130 ± 20 | 216.0 ± 0.1 | 1.76 ± 0.23 | 17.82 ± 2.01 | 460 ± 50 | 206.8 ± 0.1 | 
K156A: exosite mutant of human m-NAD(P)-ME | 120 ± 4 | 320 ± 10 | 320 ± 10 | 800 ± 20 | 1360 ± 50 | 80 ± 3 | 1.01 ± 0.10 | 3.56 ± 0.40 | 320 ± 30 | 223.6 ± 5.1 | 1.65 ± 0.04 | 10.12 ± 0.21 | 650 ± 70 | 209.9 ± 6.2 | 
N482A: exosite mutant of human m-NAD(P)-ME | 290 ± 10 | 950 ± 30 | 1440 ± 40 | 350 ± 10 | 580 ± 30 | 970 ± 50 | 1.04 ± 0.14 | 1.02 ± 0.08 | 20 ± 10 | 215.6 ± 0.1 | 1.87 ± 0.70 | 17.43 ± 5.10 | 700 ± 170 | 169.1 ± 0.6 | 
H154V: exosite mutant of human m-NAD(P)-ME | 30 ± 2 | 460 ± 3 | 460 ± 10 | 4030 ± 40 | 70 ± 1 | 160 ± 1 | 1.08 ± 0.05 | 4.94 ± 0.26 | 530 ± 40 | 140.5 ± 2.5 | 1.99 ± 0.10 | 15.31 ± 0.51 | 970 ± 60 | 134.6 ± 2.9 | kcat compared with the WT value [4]: reduced to half of the WT value
COC(=O)CC(O)C(=O)OC (stereo not shown) [DMM, dimethyl-malate] |  |  |  |  |  |  |  |  |  |  |  |  |  |  | effect on lung tumor growth (lung tumor): suppress lung tumor growth in vivo
R194N: exosite mutant of human m-NAD(P)-ME | 310 ± 10 | 230 ± 10 | 80 ± 1 | 1440 ± 30 | 170 ± 10 | 40 ± 1 | 1.08 ± 0.08 | 5.11 ± 0.50 | 760 ± 70 | 227.4 ± 6.1 | 2.18 ± 0.15 | 19.53 ± 0.91 | 1600 ± 160 | 204.4 ± 8.3 | 
WT: wild-type human mitochondrial NAD(P)+-dependent malic enzyme (ME2), recombinant from E. coli | 240 ± 2 | 350 ± 3 | 640 ± 10 | 2720 ± 60 | 660 ± 10 | 50 ± 1 | 1.10 ± 0.09 | 2.98 ± 0.21 | 390 ± 50 | 261.7 ± 6.0 | 2.41 ± 0.32 | 10.67 ± 0.64 | 540 ± 60 | 252.0 ± 8.2 | h (Hill coefficient, malate cooperativity) ([4]; (−) without fumarate, listed as Human m-NAD(P)-ME): approximately 2
